From US20090227606A1, “Methods for Preventing or Treating Acute and Chronic Pain” (priority 2006, published 2009)
“Also recorded” adds a separate entry of the source. Like-named read-outs stand apart in the source and are kept apart here.

Legend:
[1] = system: GLT-1; conditions: Zelenaia et al. 2000, cited from earlier work; for effect on db-cAMP-dependent GLT-1 expression: db-cAMP-treated astrocytes; for GLT-1 induction in cultured astrocytes: Schlag et al. 1998
[2] = system: primary cultured astrocytes; assay: Astrocyte morphology and process length, phase contrast microscopy; type: cell-based, rat
Procedure: Astrocyte cultures were prepared from the cortices of neonatal rats (1-3 days old) using the Worthington Papain Dissociation System (Worthington Biochemical Corporation, Lakewood, N.J.) according to the method of Huettner and Baughman (1986. J. Neurosci. 6:3044-3060). Briefly, cortices of neonatal rats were dissected, treated with papain (20 U/ml), dissociated by trituration and plated in 75 cm^2 flasks in Dulbecco's modified Eagle's medium (DMEM) supplemented with 10% charcoal-stripped fetal bovine serum (FBS), 1% GlutaMax and 1% penicillin/streptomycin (P/S, 100 U/ml penicillin, 100 μg/ml streptomycin, P/S). Cells were fed twice weekly until they reached confluence (Day in vitro, DIV 10-12) at which point they were mechanically shaken for 1 hr on an orbital shaker to remove any remaining oligodendrocytes and microglia. Subsequently, cultures were treated with trypsin for 30 minutes at 37° C. and re-plated into 6 or 12-well dishes at a density of about 3.0×10^4 cells/cm^2. Resultant cultures were greater than 95% astrocytic as determined by GFAP immunostaining.
(§1) After approximately 14 days (2 days after subplating into plates, DIV 14) astrocytes had formed a confluent monolayer. […] Phase contrast microscopy was then carried out in order to assess the morphology of cells after the various treatments. Length of astrocyte processes was quantified by measuring all processes in 2-3 phase contrast images/group by an independent observer, blinded to the treatment groups using Image J v1.34s (National Institutes of Health, Bethesda, Md.).

[3] = system: GLAST; assay: Immunocytochemistry of cultured astrocytes, GLAST staining; type: cell-based, rat; conditions: treated astrocytes
Procedure: Primary astrocyte-enriched cultures were plated onto sterile 18 mm glass coverslips. After three washes in PBS, cells were permeabilized in 5% glacial acetic acid/95% ethanol (acid-alcohol) for 10 minutes. After washing, cells were incubated in a 1% normal goat serum for 30 minutes and then overnight at 4° C. in primary mouse anti-GFAP (1:500), rabbit anti-GLT-1 (1:500) or guinea pig anti-GLAST (1:2000). The following day, cells were washed and then incubated for 2 hours at room temperature with goat anti-mouse Alexa Fluor™-555 (Invitrogen Corporation, Carlsbad, Calif.) goat anti-guinea pig Alexa Fluor™-488 (Invitrogen Corporation, Carlsbad, Calif.) or goat anti-rabbit Alexa Fluor™-488 (Invitrogen Corporation, Carlsbad, Calif.; all at 1:250). Finally, cells were post-fixed in acid-alcohol and mounted with Vectashield (Vector Labs, Burlingame, Calif.) containing 4′,6-diamidino-2-phenylindole dihydrochloride hydrate (DAPI, Sigma Chemical Co., St Louis, Mo.), in order to visualize cell nuclei. The sections were examined with a fluorescence microscope, and images were captured with a Q-Fire cooled camera (Olympus, Melville, N.Y.). Confocal microscopy was also performed using a Zeiss LSM 510 Meta confocal microscope (Carl Zeiss AG, Oberkochen, Germany). Merged color images were processed using Adobe Photoshop 7.0 (Adobe Systems, San Jose, Calif.).

[4] = system: GLT-1 mRNA; assay: Real Time RT-PCR of cultured astrocytes, GLT-1 mRNA; type: cell-based, rat; conditions: propentofylline 10, 100, 1000 μM; db-cAMP 250 μM; relative to GAPDH
Procedure: as §1
(§2) Total RNA was isolated from astrocyte cultures using the Qiagen RNeasy mini-kit (Qiagen Inc., Valencia, Calif.) according to the manufacturer's protocol for isolation of total RNA from animal cells. Reverse transcription (RT) was carried out using the high-capacity cDNA archive kit (Applied Biosystems, Foster City, Calif.) according to the vendor's protocol. Real-time RT-PCR reactions were carried out in a total reaction volume of 25 μL containing a final concentration of 1.5 U Platinum Taq DNA polymerase (Invitrogen Corporation, Carlsbad, Calif.); 20 mM Tris HCl (pH 8.4); 50 mM KCl; 3 mM MgCl2; 200 μM dGTP, dCTP, and dATP; 400 μM dUTP and 1 U of UDG (uracyl DNA glycosylase); 900 nM of forward and reverse primers; 300 nM Taqman probe; and 5 μL of cDNA (50 ng) from the RT step. The iCycler™ Multicolor Real-Time PCR detection system (Bio-Rad Laboratories, Hercules, Calif.) was used to quantify PCR product. The fluorescence and threshold values (CT) obtained were used to compare the relative amount of target mRNA in experimental groups to those of controls using the 2^−ΔΔC^T method (Livak, K. J. and T. D. Schmittgen. 2001. Methods 25:402-408). Each experiment was run twice and samples were run in duplicate. For each sample, the mean CT value for the control gene (GAPDH) was then subtracted from the mean CT value for the gene of interest (GLT-1, GLAST) to obtain a ΔCT value. The ΔCT values for the control group (untreated) were then averaged and subtracted from the ΔCT for the experimental groups to obtain the ΔΔCT. The relative fold change from control was then expressed by calculation of 2^−ΔΔC^T for each sample and the results are expressed as the group mean fold change±SEM.

[5] = system: GLAST mRNA; assay: Real Time RT-PCR of cultured astrocytes, GLAST mRNA; type: cell-based, rat; conditions: propentofylline 10, 100, 1000 μM; db-cAMP 250 μM; relative to GAPDH
Procedure: as §1
as §2, with “The ΔCT values for the control group (untreated) were then averaged and subtracted from the ΔCT for the experimental groups to obtain the ΔΔCT.” left out

[6] = system: GLAST; assay: Western blot of cultured astrocytes, GLAST protein; type: cell-based, rat; conditions: 3 or 7 days, normalized to β-actin
Procedure: as §1
Cells were scraped into PBS containing a protease inhibitor cocktail (1:1000, Sigma Chemical Co., St. Louis, Mo.) and then lysed by sonication in 5 one-second pulses. The samples were stored at −80° C. until use. Total protein was determined using the Lowry method (DC assay, Bio-Rad, Hercules, Calif.). Forty micrograms of protein (diluted in sample buffer and boiled) and standard protein markers were subjected to SDS/7.5% polyacrylamide gel electrophoresis and transferred to polyvinylidene difluoride (PVDF) membranes. Nonspecific binding was blocked by incubation with 5% milk/PBS-Tween at room temperature for 1 hour followed by incubation overnight at 4° C. with rabbit anti-GLT-1 (1:500) or guinea pig anti-GLAST (1:2500). The following day, blots were washed and incubated for 1 hour at room temperature with goat anti-rabbit HRP-conjugated secondary (1:3000) or goat anti-guinea pig HRP-conjugated secondary antibody (1:5000) and visualized with enhanced chemiluminescence (ECL). Images were obtained using the Typhoon Imaging System (Amersham-GE Healthcare, Piscataway, N.J.). Finally, blots were incubated for 15 minutes in stripping buffer and reprobed with a monoclonal mouse anti-β-actin antibody (1:10,000) as a loading control. Densitometric analysis was performed using ImageQuant 5.2 (Molecular Dynamics, GE Healthcare, Piscataway, N.J.).

[7] = system: MIP-2 (CXCL2); assay: ELISA of MIP-2 release from cultured astrocytes; type: cell-based, rat; conditions: seven days, LPS 1 μg/ml; propentofylline 1000 μM; db-cAMP 250 μM
Procedure: as §1
(§3) Standard ELISA was performed for quantitative determination of MCP-1 and MIP-2 protein in cell culture supernatant. Assays were carried out according to the manufacturer's specifications (Biosource, Camarillo, Calif.) using the sandwich enzyme immunoassay procedure. Optical density at 450 nm was obtained using the MRX Revelations program (Dynex Technologies, Chantilly, Va.) and relative protein concentrations were determined by comparing samples to the standard curve generated.

[8] = system: MCP-1 (CCL2); assay: ELISA of MCP-1 release from cultured astrocytes; type: cell-based, rat; conditions: seven days
Procedure: as §1, §3

[9] = system: Na+-dependent glutamate transport; conditions: db-cAMP, Schlag et al. 1998; cited from earlier work

## CCCCCCOC(=O)[C@]1(O)C[C@@H]2O[C@@]1(C)n1c3ccccc3c3c4c(c5c6ccccc6n2c5c31)C(=O)NC4 [KT5720]
[1]
  effect on db-cAMP-dependent GLT-1 expression: blocks induction of GLT-1 protein

## COc1cccc(-c2cc(=O)c3ccccc3o2)c1N [PD98059]
[1]
  effect on db-cAMP-dependent GLT-1 expression: partially attenuates

## S=C(S)N1CCCC1 [PDTC]
[1]
  effect on db-cAMP-dependent GLT-1 expression: inhibited db-cAMP-mediated increases in GLT-1 expression

## CCCC(=O)Nc1ncnc2c1ncn2[C@@H]1O[C@@H]2COP(=O)(O)O[C@H]2[C@H]1OC(=O)CCC [db-cAMP, dibutyryl cyclic-adenosine-5′,3′-monophosphate]
[2]; 3 days or 7 days of treatment, phase contrast microscopy
  astrocyte morphology: extend fewer, longer processes
[2]; 7 days, 250 μM db-cAMP vs. 1000 μM propentofylline
  length of astrocyte processes: significantly longer processes than propentofylline; also recorded: significantly longer processes than PPF
[3]
  GLAST staining: slightly increased GLAST staining
[4]
  GLT-1 mRNA level, in words: mimicked
[5]
  GLAST mRNA level, in words: mimicked
[6]
  GLAST protein level, in words: greater increase in GLAST than high dose propentofylline
[7]
  LPS-induced MIP-2 (CXCL2) release: had no effect on LPS-induced chemokine release
[8]; LPS 1 μg/ml, propentofylline 1000 μM, db-cAMP 250 μM
  LPS-induced MCP-1 (CCL2) release: had no effect on LPS-induced chemokine release
[8]; without LPS
  basal MCP-1 (CCL2) release, treatment alone: significantly increased MCP-1 (CCL2) above basal levels
[9]
  increase in glutamate transport activity: 2 fold
  sensitivity of increased glutamate uptake to DHK: DHK-insensitive
[1]
  GLT-1 induction in cultured astrocytes: induced high levels of GLT-1 protein expression
[1]; listed as dibutyryl-cAMP
  GLT-1 induction in cultured astrocytes: induce astrocytic maturation and GLT-1 induction
